Reference: PubChem BioAssay AID2060336 (Molecular Pharmacology Branch, DTP, NCI, 2025)
Where “and” joins values, the source holds several entries; their conditions need not be identical. Equal entries are not always repeated.

Tested on: 958767-090-R-J1-PDC spheroid growth
Assay: Anticancer human tumor 958767-090-R-J1-PDC patient-derived head and neck squamous carcinoma cell line growth inhibition [IpAb]
Settings: spheroids with HUVEC and MSC; for viability, T/C: stronger effect = lower value
Excerpt: Combinatorial screen of targeted agents with ipatasertib and abemaciclib in multi-cell type tumor spheroids
A high-throughput screen of multi-cell type tumor spheroids was designed to identify active combinations of targeted small molecules and ipatasertib or abemaciclib. Complex spheroids include a stromal component modeled by human endothelial cells (HUVEC) and fibroblasts modeled by human mesenchymal stem cells (MSCs). The concentration ranges selected for each drug and investigational agent were based upon clinically achievable concentrations if the clinical Cmax of the agent was known.
Compounds. The drugs and investigational agents: ipatasertib (NSC767898), abemaciclib(NSC768073), selumetinib (NSC741078), trametinib (758246), adavosertib (NSC754352), everolimus (NSC733504), sapanisertib (NSC764658), vemurafenib (NSC761431), venetoclax (NSC766270), copanlisib (NSC809693), apelisib (NSC765974), palbociblib (NSC758247), vemurafenib (NSC761431), dabrafenib (NSC764134), ravoxertinib (NSC781343), BMS-387032 (NSC767048), sotorasib (NSC818433), talazoparib (NSC767125) and afursertib (NSC778305), were obtained from the National Cancer Institute (NCI) Developmental Therapeutics Program Chemical Repository. The FDA-approved anticancer drug set is available from the NCI Developmental Therapeutics Program. […] The stock solutions were prepared in dimethyl sulfoxide (DMSO, Sigma-Aldrich, St. Louis, MO, cat. D2650) at 800-fold the tested concentration and stored at -70 degrees C prior to their use. All drugs and investigational agents were tested over a range starting from a high concentration at or near the clinical Cmax and decreasing in half-log increments. If the clinical Cmax for an agent had not been determined, the highest concentration tested was 10 microM.
NCI60 Cell Culture. NCI60 cell lines were obtained from the NCI Developmental Therapeutics Program Tumor Repository. For each lot of cells, the Repository performed Applied Biosystems AmpFLSTR Identifiler testing with PCR amplification to confirm consistency with the published Identifier STR profile for each cell line. Cells were kept in continuous culture for no more than 20 passages. The optimal seeding densities for each of the cell lines at each time point assessed were determined prior to performing the concentration response studies. Briefly, the NCI60 human tumor lines were grown as monolayers in RPMI 1640 medium supplemented with 10% FBS and 2 mmol/L L-glutamine.
An additional 9 lines were from the NCI60 cell line panel including MDA-MB-231 breast carcinoma, MDA-MB-468 breast carcinoma, MCF7 breast carcinoma, Hs578T breast carcinoma, MALME-3M melanoma, SK-MEL-2 melanoma, SK-OV-3 ovarian carcinoma, DU-145 prostate carcinoma, PC-3 prostate carcinoma, all cell lines along with major genetic alterations are listed on Table 2. Pooled donor human umbilical vein endothelial cells (HUVEC, Lonza, cat. CC-2519) and human mesenchymal stem cells (hMSC, Lonza, cat. PT-2501) were purchased from Lonza (Walkersville, MD).
PDMR cell lines were grown in complete medium (DC medium): Dulbecco's modified Eagle's medium (DMEM)/F12 supplemented with 5% fetal bovine serum (FBS), 2 mM L-glutamine, 100 U/mL penicillin and 100 µg/ml streptomycin, 0.4 µg/ml hydrocortisone, 10 ng/ml epidermal growth factor (EGF) recombinant human protein, 24 µg/mL adenine, and 0.1 mg/mL primocin. During culture from frozen stock vials, PDMR cells were cultured in the same medium containing 10 µM Y-27632 (see Table 3). The PDCs were cultured in complete DMEM/F12 media without 10 microM Y-27632 dihydrochloride for at least two passages prior to the screen. The pooled donor HUVEC and hMSC were cultured in endothelial cell growth medium 2 (PromoCell, Heidelberg, Germany, cat. C-22011) and mesenchymal stem cell growth medium 2 (PromoCell, cat. C-28009), respectively. For all experiments, HUVEC and hMSC were used at passages </=5.
[…]
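Also: spheroids exposed to agents for 7 days.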
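For viability, T/C in this document: 100% = DMSO vehicle control wells.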

Row | SMILES | viability, T/C (compound 0.0316 µM) | viability, T/C (compound 0.1 µM) | viability, T/C (compound 0.316 µM) | viability, T/C (compound 1 µM) | viability, T/C (compound 3.16 µM) | viability, T/C (compound 10 µM) | IC50 (curve of compound) | other results
1 | C=CC(=O)N1CCN(c2nc(=O)n(-c3c(C)ccnc3C(C)C)c3nc(-c4c(O)cccc4F)c(F)cc23)C(C)C1 (stereo unspecified) | 99.7% and 95% | 93.8% and 88.2% | 97.1% and 102% | 94.9% and 107% | 83.6% and 75.9% | 39.8% | 7660 nM and 7220 nM | –
2 | C=CCn1c(=O)c2cnc(Nc3ccc(N4CCN(C)CC4)cc3)nc2n1-c1cccc(C(C)(C)O)n1 | 86.2% and 89.5% | 72.7% and 72.8% | 33.4% and 47.7% | 27.7% and 37.4% | 25% and 28.7% | 21.1% and 20.1% | 195 nM and 344 nM | –
3 | CC(=O)c1c(C)c2cnc(Nc3ccc(N4CCNCC4)cn3)nc2n(C2CCCC2)c1=O | – | – | – | – | – | – | > 300 nM | viability, T/C (compound 0.000949 µM): 76.6% and 103%; viability, T/C (compound 0.003 µM): 66.5% and 83.4%; viability, T/C (compound 0.00949 µM): 62.2% and 75.6%; viability, T/C (compound 0.03 µM): 62.2% and 68.8%; viability, T/C (compound 0.0949 µM): 63.7% and 65.3%; viability, T/C (compound 0.3 µM): 54.1% and 51.8%
4 | CC(C)(C)c1cnc(CSc2cnc(NC(=O)C3CCNCC3)s2)o1 | – | – | – | – | – | – | 159 nM and 172 nM | viability, T/C (compound 0.00949 µM): 106% and 118%; viability, T/C (compound 0.03 µM): 97% and 116%; viability, T/C (compound 0.0949 µM): 85.4% and 100%; viability, T/C (compound 0.3 µM): 6.79% and 3.17%; viability, T/C (compound 0.949 µM): 2.83% and 2.21%; viability, T/C (compound 3 µM): 2.61% and 2.81%
5 | CC(C)NCC(C(=O)N1CCN(c2ncnc3c2C(C)CC3O)CC1)c1ccc(Cl)cc1 (stereo unspecified) | – | 90.6% [middle of 13 runs] | – | 50.7% [middle of 13 runs] | – | – | – | –
6 | CC(C)n1nc(-c2ccc3oc(N)nc3c2)c2c(N)ncnc21 | 36.9% and 34.2% | 39.7% and 32.1% | – | – | – | – | 13.9 nM and 11.9 nM | viability, T/C (compound 0.000316 µM): 84.9% and 95.3%; viability, T/C (compound 0.001 µM): 89.9% and 94.5%; viability, T/C (compound 0.00316 µM): 74.5% and 73.8%; viability, T/C (compound 0.01 µM): 55.9% and 54.9%
7 | CC1(C)CCC(CN2CCN(c3ccc(C(=O)NS(=O)(=O)c4ccc(NCC5CCOCC5)c([N+](=O)[O-])c4)c(Oc4cnc5[nH]ccc5c4)c3)CC2)=C(c2ccc(Cl)cc2)C1 | 79.8% and 92% | 86.8% and 104% | 90.3% and 99% | 93.9% and 100% | 105% and 112% | 5.27% and 4.22% | 5490 nM and 5830 nM | –
8 | CCCS(=O)(=O)Nc1ccc(F)c(C(=O)c2c[nH]c3ncc(-c4ccc(Cl)cc4)cc23)c1F | 86.3% and 103% | 93.5% and 92.7% | 92.7% and 98.5% | 94.9% and 96% | 98.5% and 96.4% | 65.5% and 66.7% | > 10000 nM | –
9 | CCN1CCN(Cc2ccc(Nc3ncc(F)c(-c4cc(F)c5nc(C)n(C(C)C)c5c4)n3)nc2)CC1 | – | 63.6% [middle of 13 runs] | – | 80.7% [middle of 12 runs] | – | – | – | IC50 (compound alone, run of 06/01/2021): > 1000 nM
10 | COc1c(OCCCN2CCOCC2)ccc2c3n(c(=NC(=O)c4cnc(N)nc4)nc12)CCN3 | 34.6% and 39.4% | 15.9% and 25.2% | 8.95% and 9.82% | 4.88% and 4.05% | – | – | 10.7 nM and 18.2 nM | viability, T/C (compound 0.00316 µM): 64.4% and 71.9%; viability, T/C (compound 0.01 µM): 50% and 60.7%
11 | Cc1nc(NC(=O)N2CCCC2C(N)=O)sc1-c1ccnc(C(C)(C)C(F)(F)F)c1 (stereo unspecified) | 85.3% and 75% | 68.5% and 71.4% | 48.5% and 42.7% | 32.3% and 36.4% | 22.2% and 22.6% | 9.48% and 9.72% | 304 nM and 311 nM | –
12 | Cn1cnc2c(F)c(Nc3ccc(Br)cc3Cl)c(C(=O)NOCCO)cc21 | – | – | – | – | – | – | 28.4 nM and 43.7 nM | viability, T/C (compound 0.00949 µM): 73% and 64.2%; viability, T/C (compound 0.03 µM): 48.8% and 52.3%; viability, T/C (compound 0.0949 µM): 32.5% and 42.5%; viability, T/C (compound 0.3 µM): 30.8% and 35.8%; viability, T/C (compound 0.949 µM): 31% and 28.7%; viability, T/C (compound 3 µM): 17.2% and 19.8%
13 | Cn1ncc(Cl)c1-c1cc(C(=O)NC(CN)Cc2cccc(F)c2)sc1Cl (stereo unspecified) | 81.8% and 95% | 73.2% and 88.4% | 68.2% and 60.5% | 57.1% and 44.8% | 39% and 31.4% | 0.18% and 0.23% | 1540 nM and 837 nM | –
14 | Cn1nccc1Nc1nccc(-c2ccn(C(CO)c3ccc(Cl)c(F)c3)c(=O)c2)n1 (stereo unspecified) | 92.1% and 96.5% | 72.6% and 82.8% | 71.3% and 72.6% | 55.1% and 69.1% | 54.4% and 50% | 21.6% and 26.4% | 2000 nM and 2910 nM | –
15 | Cn1ncnc1[C@H]1c2n[nH]c(=O)c3cc(F)cc(c23)N[C@@H]1c1ccc(F)cc1 | 79.7% and 80.1% | 70.6% and 68.1% | – | – | – | – | > 100 nM | viability, T/C (compound 0.000316 µM): 123% and 91.8%; viability, T/C (compound 0.001 µM): 81.7% and 109%; viability, T/C (compound 0.00316 µM): 80.4% and 90.1%; viability, T/C (compound 0.01 µM): 73.3% and 91.3%
